Assay results as given in PubChem BioAssay AID1259411 (Chemical Carcinogenesis Research Information System (CCRIS), 2018).
The source made the active and inactive calls. The rule behind the calls is not given here.

Tested on: rodent carcinogenicity bioassays, tumor incidence
Assay: CCRIS carcinogenicity studies
Outline: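 Archive of carcinogenicity, mutagenicity, tumor promotion and tumor inhibition results drawn from journals, NCI reports and other sources, expert-reviewed; covers 1985-2011 and is no longer updated.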

## C/C=C/C=O
Species: MOUSE, Strain/Sex: B6C3F1/FEMALE, Route: INTRAPERITONEAL, Dose: 0, 1500 NMOL TOTAL DOSE, 1/3 AND 2/3 OF THE TOTAL DOSE ADMINISTERED AT 8 AND 15 DAYS OF AGE RESPECTIVELY, ANIMALS TERMIN
  carcinogen call: inactive; negative
Species: MOUSE, Strain/Sex: B6C3F1/FEMALE, Route: INTRAPERITONEAL, Dose: 0, 3000 NMOL TOTAL DOSE, 1/3 AND 2/3 OF THE TOTAL DOSE ADMINISTERED AT 8 AND 15 DAYS OF AGE RESPECTIVELY, ANIMALS TERMIN
  carcinogen call: inactive; negative
Species: MOUSE, Strain/Sex: B6C3F1/MALE, Route: INTRAPERITONEAL, Dose: 0, 1500 NMOL TOTAL DOSE, 1/3 AND 2/3 OF THE TOTAL DOSE ADMINISTERED AT 8 AND 15 DAYS OF AGE RESPECTIVELY, ANIMALS TERMIN
  carcinogen call: inactive; negative
Species: MOUSE, Strain/Sex: B6C3F1/MALE, Route: INTRAPERITONEAL, Dose: 0, 3000 NMOL TOTAL DOSE, 1/3 AND 2/3 OF THE TOTAL DOSE ADMINISTERED AT 8 AND 15 DAYS OF AGE RESPECTIVELY, ANIMALS TERMIN
  carcinogen call: inactive; negative

## ClC(Cl)=C(c1ccc(Cl)cc1)c1ccc(Cl)cc1
Species: MOUSE, Strain/Sex: B6C3F1/FEMALE, Route: ORAL, Dose: 0, 148, 261 PPM IN DIET, TWA, Dose: 0, 148, 261 PPM IN DIET, TWA, Tumor Site: Type of Lesion: LIVER: HEPATOCELLULAR CARCINOMA
  carcinogen call: active; positive
Species: MOUSE, Strain/Sex: B6C3F1/MALE, Route: ORAL, Dose: 0, 148, 261 PPM IN DIET, TWA, Dose: 0, 148, 261 PPM IN DIET, TWA, Tumor Site: Type of Lesion: LIVER: HEPATOCELLULAR CARCINOMA
  carcinogen call: active; positive
Species: MOUSE, Strain/Sex: CF-1/MALE,FEMALE, Route: ORAL, Dose: 250 PPM IN DIET, Tumor Site: Type of Lesion: LIVER: HEPATOMA
  carcinogen call: active; positive
Species: RAT, Strain/Sex: OSBORNE-MENDEL/FEMALE, Route: ORAL, Dose: 0, 242, 462 PPM IN DIET, TWA, Dose: 0, 242, 462 PPM IN DIET, TWA
  carcinogen call: inactive; negative
Species: RAT, Strain/Sex: OSBORNE-MENDEL/MALE, Route: ORAL, Dose: 0, 437, 839 PPM IN DIET, TWA, Dose: 0, 437, 839 PPM IN DIET, TWA
  carcinogen call: inactive; negative
